# US20230158025A1 (UNIVERSITY OF UTAH RESEARCH FOUNDATION, priority 2020, published 2023)
# Where two headings read alike, the source gives them in different places.
# Key:
# recombinant mouse GALK1 = recombinant mouse GALK1 (Mus musculus, UniProt Q9R0N0); assay: mGALK1 biochemical activity assay (Kinase-Glo Plus, ATP depletion)
# Protocol: In vitro hGALK1 activity assays were performed as previously described. Liu et al., Bioorg. […] The biochemical assay was performed by coupling the activity of recombinant human or mouse GALK1 to the Kinase-Glo Plus luminescent ATP detection kit, using ATP depletion as a measure of GALK1 turnover. […] One μL/well of GALK-galactose solution (5 nM GALK1, 100 μM galactose) in assay buffer was then added, yielding a final reaction volume of 4 μL/well. Following a 1-hour room temperature incubation, 4 μL of Kinase-Glo Plus detection reagent was added to provide an ATP-dependent luminescent readout (final assay volume: 8 μL/well).
# [1] = rat microsomal stability (RLM)
# recombinant human GALK1 = recombinant human GALK1 (Homo sapiens, UniProt P51570); assay: hGALK1 biochemical activity assay (Kinase-Glo Plus, ATP depletion)
# Protocol: In vitro hGALK1 activity assays were performed as previously described. Liu et al., Bioorg. Med. Chem. Lett. 25(3): 721-727 (2015), which is incorporated by reference herein for the specific teachings thereof. The biochemical assay was performed by coupling the activity of recombinant human or mouse GALK1 to the Kinase-Glo Plus luminescent ATP detection kit, using ATP depletion as a measure of GALK1 turnover. Specifically, three μL/well of ATP substrate solution (35 μM ATP) in assay buffer (20 mM HEPES pH 8.0, 5 mM MgCl2, 60 mM NaCl, 1 mM DTT, 0.01% BSA final concentration) was dispensed into 1536-well assay plates (Greiner, white solid-bottom medium-binding plates). Aliquots of compound (23 nL solubilized in DMSO) were transferred to the assay plates using a Kalypsys 1536-well pintool such that 11 concentrations with 1/3 dilutions ranging from 57.4 μM-0.97 nM are tested. One μL/well of GALK-galactose solution (5 nM GALK1, 100 μM galactose) in assay buffer was then added, yielding a final reaction volume of 4 μL/well. Following a 1-hour room temperature incubation, 4 μL of Kinase-Glo Plus detection reagent was added to provide an ATP-dependent luminescent readout (final assay volume: 8 μL/well).
# [2] = aqueous kinetic solubility
# [3] = recombinant mouse GALK1, Kinase-Glo Plus ATP depletion, read-out: mGALK
# [4] = recombinant human GALK1, Kinase-Glo Plus ATP depletion, read-out: hGALK
# [5] = recombinant mouse GALK1, Kinase-Glo Plus ATP depletion
# [6] = Tables 2-15, 35 μM ATP, 100 μM galactose, 1 h, bracketed figure after some values is undefined and not reported, read-out: mGALK IC50
# [7] = Tables 2-15, 35 μM ATP, 100 μM galactose, 1 h, bracketed figure after some values (e.g. −1.2) is undefined and not reported, read-out: hGALK IC50
# [8] = Tables 2-15, 35 μM ATP, 100 μM galactose, 1 h, bracketed figure after some values is undefined and not reported
# [9] = Tables 2-15, 35 μM ATP, 100 μM galactose, 1 h, bracketed figure after some values (e.g. −1.2) is undefined and not reported
# [10] = recombinant human GALK1, Kinase-Glo Plus ATP depletion
# [11] = recombinant mouse GALK1, Kinase-Glo Plus ATP depletion, bracketed figure in the cell, e.g. (−1.2), is not defined in the text shown, read-out: mGALK
# [12] = microsomal stability half-life, minutes
# [13] = recombinant human GALK1, Kinase-Glo Plus ATP depletion, bracketed figure in the cell, e.g. (−1.2), is not defined in the text shown, read-out: hGALK
# Sequence of recombinant mouse GALK1 (Q9R0N0 whole entry): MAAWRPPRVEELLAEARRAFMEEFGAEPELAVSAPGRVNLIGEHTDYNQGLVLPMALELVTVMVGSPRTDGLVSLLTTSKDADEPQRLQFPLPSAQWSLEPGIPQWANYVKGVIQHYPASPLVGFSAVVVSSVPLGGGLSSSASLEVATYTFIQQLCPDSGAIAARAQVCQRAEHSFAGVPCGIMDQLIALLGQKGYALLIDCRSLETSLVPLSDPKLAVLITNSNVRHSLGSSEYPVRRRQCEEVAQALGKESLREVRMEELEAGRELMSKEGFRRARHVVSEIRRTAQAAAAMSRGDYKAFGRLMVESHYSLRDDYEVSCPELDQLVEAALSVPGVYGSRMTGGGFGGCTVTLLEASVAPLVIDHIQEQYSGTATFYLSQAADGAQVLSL
# Sequence of recombinant human GALK1 (P51570 whole entry): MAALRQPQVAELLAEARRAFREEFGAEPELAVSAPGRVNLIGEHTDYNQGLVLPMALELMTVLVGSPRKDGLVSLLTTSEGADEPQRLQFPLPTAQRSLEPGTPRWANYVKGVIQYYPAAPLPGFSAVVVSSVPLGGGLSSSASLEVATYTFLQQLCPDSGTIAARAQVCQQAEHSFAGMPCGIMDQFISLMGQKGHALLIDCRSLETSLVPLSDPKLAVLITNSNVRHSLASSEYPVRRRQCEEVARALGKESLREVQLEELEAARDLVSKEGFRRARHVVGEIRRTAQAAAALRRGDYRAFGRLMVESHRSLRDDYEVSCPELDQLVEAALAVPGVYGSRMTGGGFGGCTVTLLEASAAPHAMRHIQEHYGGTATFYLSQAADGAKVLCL
SMILES,IC50 (recombinant mouse GALK1; [3]) [µM],IC50 (recombinant human GALK1; [4]) [µM],mGALK (μM) (recombinant mouse GALK1; [5]),Metab. Stabil. (m) ([1]; microsomal stability half-life),Sol. ([2]; aqueous kinetic solubility) [µg/mL],also measured
"COc1ccc(C(=O)O)cc1NC(=O)C1=C(C)NC(Nc2nc3ccc(F)cc3o2)=NC1c1ccccc1Cl (stereo not drawn) [Compound 27, 3-(4-(2-chlorophenyl)-2-((6-fluorobenzo[d]oxazol-2-yl)amino)-6-methyl-1,4-dihydropyrimidine-5-carboxamido)-4-methoxybenzoic acid]",12.2,2.17,,,,Metab. Stabil. (m) ([1]; microsomal half-life): >30 m; Sol. [2]: 53.3 µg/mL
"CNCCNC(=O)C1=C(C)NC(Nc2nc3ccc(F)cc3o2)=NC1c1ccccc1Cl (stereo not drawn) [Compound 33, 4-(2-chlorophenyl)-2-((6-fluorobenzo[d]oxazol-2-yl)amino)-6-methyl-N-(2-(methylamino)ethyl)-1,4-dihydropyrimidine-5-carboxamido]",6.11,15.3,,,,Metab. Stabil. (m) ([1]; microsomal half-life): >30 m; Sol. [2]: >67 µg/mL
"CC1=C(C(=O)Nc2ccc(CO)cn2)C(c2ccccc2Cl)N=C(Nc2nc3ccc(F)cc3o2)N1 (stereo not drawn) [Compound 42, 4-(2-chlorophenyl)-2-((6-fluorobenzo[d]oxazol-2-yl)amino)-N-(5-(hydroxymethyl)pyridin-2-yl)-6-methyl-1,4-dihydropyrimidine-5-carboxamide]",19.3,12.2,,,,Metab. Stabil. (m) ([1]; microsomal half-life): >30 m; Sol. [2]: <1 µg/mL
"CC1=C(C(=O)Nc2ccc(Cl)cn2)C(c2ccccc2Cl)N=C(Nc2nc3ccccc3o2)N1 (stereo not drawn) [Compound 153, 2-(benzo[d]oxazol-2-ylamino)-4-(2-chlorophenyl)-N-(5-chloropyridin-2-yl)-6-methyl-1,4-dihydropyrimidine-5-carboxamide]",,4.85,in- active,30.79,<1,
"CC1=C(C(=O)Nc2ccccc2F)C(c2ccccc2Cl)N=C(Nc2nc3ccccc3o2)N1 (stereo not drawn) [Compound 157, 2-(benzo[d]oxazol-2-ylamino)-N-(2-fluorophenyl)-4-(2-chlorophenyl)-6-methyl-1,4-dihydropyrimidine-5-carboxamide]",9.68,7.69,,>30,<1,IC50 (recombinant mouse GALK1; [6]): 9.68 µM
"CC1=C(C(=O)Nc2cccc(F)c2)C(c2ccccc2Cl)N=C(Nc2nc3ccccc3o2)N1 (stereo not drawn) [Compound 158, 2-(benzo[d]oxazol-2-ylamino)-N-(3-fluorophenyl)-4-(2-chlorophenyl)-6-methyl-1,4-dihydropyrimidine-5-carboxamide]",12.2,6.85,,>30,<1,IC50 (recombinant mouse GALK1; [6]): 12.2 µM
"CC1=C(C(=O)Nc2ccc(CN)cc2)C(c2ccccc2Cl)N=C(Nc2nc3ccccc3o2)N1 (stereo not drawn) [Compound 169, N-(4-(aminomethyl)phenyl)-2-(benzo[d]oxazol-2-ylamino)-4-(2-chlorophenyl)-6-methyl-1,4-dihydropyrimidine-5-carboxamide]",4.32,6.11,,72.47,10.0,IC50 (recombinant mouse GALK1; [6]): 4.32 µM; IC50 (recombinant human GALK1; [7]): 6.11 µM
"CC1=C(C(=O)Nc2cccc(C(N)=O)c2)C(c2ccccc2Cl)N=C(Nc2nc3ccccc3o2)N1 (stereo not drawn) [Compound 177, 2-(benzo[d]oxazol-2-ylamino)-N-(3-carbamoylphenyl)-4-(2-chlorophenyl)-6-methyl-1,4-dihydropyrimidine-5-carboxamide]",17.2,7.69,,>30,<1,IC50 (recombinant mouse GALK1; [6]): 17.2 µM; IC50 (recombinant human GALK1; [7]): 7.69 µM
"CC1=C(C(=O)Nc2ccc(C(=O)N3CCOCC3)cc2)C(c2ccccc2Cl)N=C(Nc2nc3ccccc3o2)N1 (stereo not drawn) [Compound 182, 2-(benzo[d]oxazol-2-ylamino)-4-(2-chlorophenyl)-6-methyl-N-(4-(morpholine-4-carbonyl)phenyl)-1,4-dihydropyrimidine-5-carboxamide]",21.7,19.3,,>30,<1,IC50 (recombinant mouse GALK1; [6]): 21.7 µM; IC50 (recombinant human GALK1; [7]): 19.3 µM
"CC1=C(C(=O)Nc2cncc(C(=O)O)c2)C(c2ccccc2Cl)N=C(Nc2nc3ccccc3o2)N1 (stereo not drawn) [Compound 202, 5-(2-(benzo[d]oxazol-2-ylamino)-4-(2-chlorophenyl)-6-methyl-1,4-dihydropyrimidine-5-carboxamido)nicotinic acid]",,4.32,,>30,60.3,IC50 (recombinant human GALK1; [7]): 4.32 µM
"CC1=C(C(=O)NCc2ccccc2Cl)C(c2ccccc2Cl)N=C(Nc2nc3ccccc3o2)N1 (stereo not drawn) [Compound 216, 2-(benzo[d]oxazol-2-ylamino)-N-(2-chlorobenzyl)-4-(2-chlorophenyl)-6-methyl-1,4-dihydropyrimidine-5-carboxamide]",,,in- active,4.223,<1,mGALK IC50 (recombinant mouse GALK1; [8]): inactive; hGALK IC50 (recombinant human GALK1; [9]): inactive; hGALK (μM) (recombinant human GALK1; [10]): in- active
CC1=C(C(=O)NCc2ccc(F)cc2)C(c2ccccc2Cl)N=C(Nc2nc3ccccc3o2)N1 (stereo not drawn) [Compound 217],,7.69,in- active,11.34,<1,mGALK IC50 (recombinant mouse GALK1; [8]): inactive; IC50 (recombinant human GALK1; [7]): 7.69 µM
"CC1=C(C(=O)NCc2cn(C)cn2)[C@@H](c2ccccc2Cl)N=C(Nc2nc3ccccc3o2)N1 [Compound 236, (S)-2-(benzo[d]oxazol-2-ylamino)-4-(2-chlorophenyl)-6-methyl-N-((1-methyl-1H-imidazol-4-yl)methyl)-1,4-dihydropyrimidine-5-carboxamide]",,,in- active,8.726,40.5,mGALK IC50 (recombinant mouse GALK1; [8]): inactive; hGALK IC50 (recombinant human GALK1; [9]): inactive; hGALK (μM) (recombinant human GALK1; [10]): in- active
"CCOC(=O)C1=C(C)NC(Nc2nc3ccccc3o2)=NC1c1ccccc1Cl (stereo not drawn) [Compound 239, ethyl 2-(benzo[d]oxazol-2-ylamino)-4-(2-chlorophenyl)-6-methyl-1,4-dihydropyrimidine-5-carboxylate]",13.7,,,19.30,<1,hGALK (μM) (recombinant human GALK1; [10]): in- active
"CCOC(=O)C1=C(C(C)C)NC(Nc2nc3ccccc3o2)=NC1c1ccccc1Cl (stereo not drawn) [Compound 240, ethyl 2-(benzo[d]oxazol-2-ylamino)-4-(2-chlorophenyl)-6-isopropyl-1,4-dihydropyrimidine-5-carboxylate]",,,in- active,57.5,<1,hGALK (μM) (recombinant human GALK1; [10]): in- active
"COC(=O)C1=C(C(F)(F)F)NC(Nc2nc3ccccc3o2)=NC1c1ccccc1Cl (stereo not drawn) [Compound 241, methyl 2-(benzo[d]oxazol-2-ylamino)-4-(2-chlorophenyl)-6-(trifluoromethyl)-1,4-dihydropyrimidine-5-carboxylate]",,,in- active,10.46,2.65,hGALK (μM) (recombinant human GALK1; [10]): in- active
"O=C1NCCC2=C1C(c1ccccc1Cl)N=C(Nc1nc3ccccc3o1)N2 (stereo not drawn) [Compound 245, 2-(benzo[d]oxazol-2-ylamino)-4-(2-chlorophenyl)-4,6,7,8-tetrahydropyrido[4,3-d]pyrimidin-5(1H)-one]",,,,,<1,"IC50 (recombinant mouse GALK1; [11]): 21.7 µM; Metab. Stabil. (m) [1, 12]: 27.12 m; IC50 (recombinant human GALK1; [13]): 17.2 µM"
CC1=C(C(=O)Nc2cc(C(=O)O)ccn2)C(c2ccccc2Cl)N=C(Nc2nc3ccccc3o2)N1CC(=O)O (stereo not drawn) [Compound 272],,,,,>83,"IC50 (recombinant mouse GALK1; [11]): 13.7 µM; Metab. Stabil. (m) [1, 12]: >30 m; IC50 (recombinant human GALK1; read-out: hGALK): 3.43 µM"
"CC1=C(C(=O)Nc2cc(C(=O)O)ccn2)C(c2ccccc2Cl)N=C(Nc2nc3ccccc3o2)N1C (stereo not drawn) [Compound 273, 2-(2-(benzo[d]oxazol-2-ylamino)-4-(2-chlorophenyl)-1,6-dimethyl-1,4-dihydropyrimidine-5-carboxamido)isonicotinic acid]",,,,,>76,"IC50 (recombinant mouse GALK1; [11]): 34.3 µM; Metab. Stabil. (m) [1, 12]: >30 m; IC50 (recombinant human GALK1; [13]): 21.7 µM"
